# Reference: US20220016080A1, “COMPOUNDS THAT SELECTIVELY AND EFFECTIVELY INHIBIT HAKAI-MEDIATED UBIQUITINATION, AS ANTI-CANCER DRUGS” (FUNDACIÓN PROFESOR NOVOA SANTOS, priority 2018, published 2022)
# What was measured:
# Type in all cases: cell-based
# [1] = target: T1, E3 ubiquitin-ligase Hakai (Mus musculus, UniProt Q9JIY2); test: Hakai-dependent ubiquitination assay in 293T cells transfected with Flag-Hakai, v-Src and HA-ubiquitin; settings: 293T cells transfected with Src, treated 36 h, DMSO as control
# T1 construct: expressed in transfected cells; host or cells: HEK293T (293) cells, co-transfected with v-Src and HA-ubiquitin, and in A3 also with myc-E-cadherin
# T1 sequence (Q9JIY2 1-491): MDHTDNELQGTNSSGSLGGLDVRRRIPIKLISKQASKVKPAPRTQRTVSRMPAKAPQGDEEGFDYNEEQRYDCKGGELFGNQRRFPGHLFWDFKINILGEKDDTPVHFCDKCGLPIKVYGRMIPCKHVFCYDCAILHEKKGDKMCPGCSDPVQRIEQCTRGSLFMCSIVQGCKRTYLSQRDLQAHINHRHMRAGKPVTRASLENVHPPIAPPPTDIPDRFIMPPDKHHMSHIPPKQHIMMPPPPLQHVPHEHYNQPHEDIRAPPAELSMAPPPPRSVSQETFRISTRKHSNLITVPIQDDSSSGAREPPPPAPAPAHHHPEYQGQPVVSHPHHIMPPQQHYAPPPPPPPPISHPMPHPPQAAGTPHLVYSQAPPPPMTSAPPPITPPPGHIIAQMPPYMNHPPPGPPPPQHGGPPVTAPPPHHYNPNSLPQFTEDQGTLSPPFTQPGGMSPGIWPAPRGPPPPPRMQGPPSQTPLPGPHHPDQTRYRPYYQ
# Method: For ubiquitination assays, 750.000 HEK293T cells were seeded in 6-well cell culture plates and after 24 h were transfected with 0.25 μg Src, 0.75 μg Flag-Hakai, and 0.5 μg HA-ubiquitin with Lipofectamin 2000 (Invitrogen, UK). Six hours after transfection cells were treated with indicated concentrations of Hakin-1, Hakin-5 or the rest of the analogues tested for 36 h. Whole cell extracts were obtained in lysis buffer (20 mM Tris-HCl pH 7.5, 150 mM NaCl and 1% Triton X-100) containing 10 μg/ml leupeptin, 10 μg/ml aprotinin and 1 mM phenylmethanesulphonyl fluoride (PMSF), supplemented with 10 mM N-ethylmaleimide. Cells were harvested and subjected to western blotting using anti-HA antibody to detect ubiquitination.
# [2] = test system: HT-29 colon tumour cell line; test: MTT cell viability assay, HT29; settings: 72 h, analogues at 50-500 μM
# Method: (§1) For cytotoxicity assays, 1×10^4 cells were seeded per well into a 96-well plate. After 24 h cells were treated with the indicated inhibitors for 72 h and a MTT colorimetric cell viability assay was performed following manufacturer's instructions (Sigma Aldrich, St Louis, Mo.). Absorbance was measured at 570 and 630 nm using a Multiskan Plus Reader (Nanoquant Infinite M200 Tecan Trading AG, Switzerland). Dose-response curves were designed with Graph Pad Prism Software and the half-maximal inhibitory concentration (IC50) values were calculated. Represented data are the mean±SEM of at least three independent experiments with six replicates per condition.
# [3] = test system: normal epithelial MDCK cell line; test: MTT cell viability assay, MDCK; settings: normal epithelial MDCK compared to Hakai-MDCK; 72 h
# Method: as §1
# [4] = test system: HT-29 cells; test: Immunofluorescence of E-cadherin, HT-29; settings: 48 h
# Method: (§2) For western blot analysis, cells were treated with the indicated inhibitors for 48 h and the whole cell extracts were obtained as described previously. Twenty micrograms of lysates were resolved on a 10% polyacrilamide SDS-PAGE followed by western blot analysis performed as previously described. For immunofluorescence assays cells were grown for 24 h on glass coverslips and treated with the indicated inhibitors for 48 h. Cells were fixed with 4% PFA for 15 min, permeabilized with 0.5% […] and incubated with E-cadherin antibody for 2 h. Coverslips were incubated with fluorescein-tagged secondary antibody (Dakopatts, Sweden) for […]. Finally coverslips were mounted with ProLong Gold antifade reagent (LifeTech, UK) and images were taken in epifluorescence microscope (Olympus) using 40× objective.
# [5] = test system: Hakai-MDCK cell lines (clone 4 and clone 11); test: MTT cell viability assay, Hakai-MDCK; settings: both clones of Hakai-MDCK compared to MDCK; 72 h
# Method: as §1
# [6] = test system: LoVo cells; test: BrdU proliferation assay, LoVo; settings: 48 h
# Method: (§3) For BrdU assays, 1×10^4 of indicated cells were plated per well into a 96-well plate. After 24 h, cells were treated with the indicated inhibitors for 48 h. Three independent experiments were plated with six replicates per each condition. Cells were treated with […] BrdU for 2 h. BrdU incorporation into newly synthesized DNA was measured using a cell proliferation colorimetric immunoassay kit according to the manufacturer's instructions (Roche, Switzerland). Results are expressed as mean±S.D. Results are represented as percentage of positive cells (mean±S.D) of three independent experiments.
# [7] = test system: Hakai-transformed MDCK cells; test: Phase-contrast cell phenotype, Hakai-MDCK
# Method: MDCK, HEK293T, HepG2, MCF7 and ACHN cells were cultured in Dulbecco's Modified Eagles Medium (DMEM). MDCK stably expressing Hakai cells (Hakai-MDCK) were previously reported and were growth in DMEM with G418 (800 μg/ml). […] LoVo and PC-3 cells were cultured in F-12K Medium (Kaighn's Modification of Ham's F-12 Medium) and HT-29 cells in McCoy's 5a Medium Modified. 5637 cells were cultured in RPMI medium. All culture media were supplemented with 1% penicillin/streptomycin and 10% of heat-inactivated fetal bovine serum (FBS) at 37° C. in a humidified incubator with 5% CO2. Cells were monthly tested for mycoplasma contamination and used only for 1-3 months after defrosted. LoVo and HT29 cells were authenticated with the StemElite ID system (Promega). For phase-contrast images, culture cells were photographed with a Nikon Eclipse-TI microscope.
# [8] = test system: HT29 cells; test: BrdU proliferation assay, HT29; settings: 48 h
# Method: as §3
# [9] = test system: HT-29 cells; test: Western blotting of EMT markers, HT-29; settings: 48 h
# Method: as §2
"ubiquitination mediated by Hakai (western blotting, anti-HA) [1]",Compound,"cytotoxicity effect (cell viability, MTT) [2]","sensitivity to treatment (cell viability, MTT) [3]",E-cadherin levels at cell-cell contacts (immunofluorescence) [4],"sensitivity to treatment (cell viability, MTT) [5]",cell proliferation (BrdU) [6],mesenchymal phenotype (phase contrast) [7],cell proliferation (BrdU) [8],E-cadherin levels (western blotting) [9]
inhibitory effect of Hakai activity,O=C(O)c1ccc(-n2nnnc2SCC(=O)c2ccc(Cl)s2)cc1 [Hakin A-23],important inhibitory response,–,–,–,–,–,–,–
no effect was detected,"CC(/C=C/C(=O)O)=C\CC(O)/C(C)=C/CCC(C)C(C)O (stereo not shown) [Hakin-5, (2E,4E,8E)-7,13-Dihydroxy-4,8,12-trimethyl-2,4,8-tetradecatrienoic acid, reference compound]",–,more resistant,no effect,more sensitive,no effect was seen,induction of an epithelial phenotype,no effect was seen,no effect
